Reference: US20100034749A1, “Use of a Cationic Collodal Preparation for the Diagnosis and Treatment of Ocular Diseases” (MediGene AG, priority 2006, published 2010)

System: laser induced CNV model in mice
Test: SLO imaging after i.v. application in laser induced CNV mouse model
Format: in vivo, C57/BI6 mice
Method: For animal experiments, the laser induced CNV model in mice was used as described by Tobe et al. (1998). In brief, C57/BI6 mice (8-12 weeks old) were anesthetized, pupils were dilated and 4-6 burns of 100 μm diameter were produced with a laser (100 mW, 100 μs). In 80-90% of the laser burns, CNV develops within about 14 days.
As read-out, Scanning Laser Opthalmoscopy (SLO), flat mount and histology are performed. 100 μl of the respective formulation was applied intravenously, immediately followed by SLO over a time course of about 120 min. Three different EndoTAG formulations are selected:
EndoTAG-A: DOTAP/DOPC/OG-DHPE=60/35/5 mol %, 10 mM total liposomal components in 10% trehalose (produced as described in Example 1). EndoTAG-B: DOTAP/DOPC/OG-DOPE=[…] mol %, 10 mM total liposomal components in 10% trehalose EndoTAG-C: DOTAP/DOPC/OG-DOPE/PEG-DOPE=60/30/5/5 mol %, 10 mM total liposomal components in 10% trehalose
As control, neutral liposomes (DOPC/OG-DOPE=95/5 mol %, 10 mM total lipid, in trehalose) is applied as well as an aqueous solution of Oregon Green (0.5 mM). Additional animals are used to carry out flat mounts and histology by sacrificing animals at the respective peak intensity as observed in SLO.

Oregon Green [free dye]
Accumulation at lesion site / neovascular sites (SLO after i.v. application): did not show an accumulation
Staining of the vasculature / neovasculature (after 60 min, equivalent concentrations): no increased staining of the vasculature
